Literature values, collected in patent US9175008B1, “Prodrugs of anti-platelet agents” (CELLIX BIO PRIVATE LIMITED, priority 2014, dated 2015).

System: recurrent atherothrombotic events
Details: recurrent atherothrombotic events across a wide range of high-risk patients

For `CC(=O)Oc1ccccc1C(=O)O` [aspirin], the relative risk reduction is listed as “approximately 25%”.
